From ChEMBL document CHEMBL4138123, “Design, synthesis and biological evaluation of novel pyrazolochalcones as potential modulators of PI3K/Akt/mTOR pathway and inducers of apoptosis in breast cancer cells” (Eur J Med Chem, 2017)
Calls of active or inactive are those of the source. The calls are words filed in the database; no cut-off is given here.

What was measured:
HOP-92 [1] = experiment: Cytotoxicity against human HOP92 cells assessed as growth inhibition after 48 hrs by sulforhodamine B assay; format: functional; settings: HOP-92, 48 h; for CC50: read-out: LC50 (the source's name)
CAKI-1 [2] = experiment: Cytotoxicity against human Caki1 cells assessed as growth inhibition after 48 hrs by sulforhodamine B assay; format: functional; settings: CAKI-1, 48 h
MCF7 [3] = experiment: Induction of intrinsic apoptosis in human MCF7 cells assessed as effect on mitochondrial membrane depolarization by measuring mean fluorescence intensity at 2 uM after 18 hrs by DiOC6 staining-based FACS analysis (reference value: 463); format: functional
MCF7 [4] = experiment: Cell cycle arrest in human MCF7 cells assessed as accumulation at S phase at 2 uM after 48 hrs by flow cytometric analysis (reference value: 57.7%); format: functional
MCF7 [5] = experiment: Cell cycle arrest in human MCF7 cells assessed as accumulation at G2/M phase at 2 uM after 48 hrs by flow cytometric analysis (reference value: 8.1%); format: functional
MCF7 [6] = experiment: Inhibition of PI3K in human MCF7 cells assessed as downregulation of phosphorylated Akt levels at 2 uM after 24 hrs by Western blot analysis; format: cell-based
MCF7 [7] = experiment: Downregulation of mTOR protein expression in human MCF7 cells at 2 uM after 24 hrs by Western blot analysis; format: functional, cell-based
MCF7 [8] = experiment: Downregulation of Akt protein expression in human MCF7 cells at 2 uM after 48 hrs by Alexa/DAPI staining-based immunofluorescence analysis; format: functional, cell-based
MCF7 [9] = experiment: Downregulation of PI3K mRNA expression in human MCF7 cells at 2 uM after 48 hrs by qRT-PCR analysis; format: functional, cell-based
MCF7 [10] = experiment: Downregulation of Akt1 mRNA expression in human MCF7 cells at 2 uM after 48 hrs by qRT-PCR analysis; format: functional, cell-based
CAKI-1 [11] = experiment: Cytotoxicity against human Caki1 cells assessed as cell growth at 0.01 uM after 48 hrs by sulforhodamine B assay relative to control; format: functional; settings: CAKI-1, 48 h, read-out: Activity
SK-MEL-2 [12] = experiment: Cytotoxicity against human SK-MEL-2 cells assessed as cell growth at 0.01 uM after 48 hrs by sulforhodamine B assay relative to control; format: functional; settings: SK-MEL-2, 48 h, read-out: Activity
LOX IMVI [13] = experiment: Cytotoxicity against human LOXIMVI cells assessed as cell growth at 0.01 uM after 48 hrs by sulforhodamine B assay relative to control; format: functional; settings: read-out: Activity
HOP-92 [14] = experiment: Cytotoxicity against human HOP92 cells assessed as cell growth at 0.01 uM after 48 hrs by sulforhodamine B assay relative to control; format: functional; settings: HOP-92, 48 h, read-out: Activity
HOP-92 [15] = experiment: Cytotoxicity against human HOP92 cells assessed as cell growth at 0.1 uM after 48 hrs by sulforhodamine B assay relative to control; format: functional; settings: HOP-92, 48 h, read-out: Activity
LOX IMVI [16] = experiment: Cytotoxicity against human LOXIMVI cells assessed as cell growth at 0.1 uM after 48 hrs by sulforhodamine B assay relative to control; format: functional; settings: read-out: Activity
SK-MEL-2 [17] = experiment: Cytotoxicity against human SK-MEL-2 cells assessed as cell growth at 0.1 uM after 48 hrs by sulforhodamine B assay relative to control; format: functional; settings: SK-MEL-2, 48 h, read-out: Activity
CAKI-1 [18] = experiment: Cytotoxicity against human Caki1 cells assessed as cell growth at 0.1 uM after 48 hrs by sulforhodamine B assay relative to control; format: functional; settings: CAKI-1, 48 h, read-out: Activity
HOP-92 [19] = experiment: Cytotoxicity against human HOP92 cells assessed as cell growth at 1 uM after 48 hrs by sulforhodamine B assay relative to control; format: functional; settings: HOP-92, 48 h, read-out: Activity
LOX IMVI [20] = experiment: Cytotoxicity against human LOXIMVI cells assessed as cell growth at 1 uM after 48 hrs by sulforhodamine B assay relative to control; format: functional; settings: read-out: Activity
SK-MEL-2 [21] = experiment: Cytotoxicity against human SK-MEL-2 cells assessed as cell growth at 1 uM after 48 hrs by sulforhodamine B assay relative to control; format: functional; settings: SK-MEL-2, 48 h, read-out: Activity
CAKI-1 [22] = experiment: Cytotoxicity against human Caki1 cells assessed as cell growth at 1 uM after 48 hrs by sulforhodamine B assay relative to control; format: functional; settings: CAKI-1, 48 h, read-out: Activity
HOP-92 [23] = experiment: Cytotoxicity against human HOP92 cells assessed as cell growth at 10 uM after 48 hrs by sulforhodamine B assay relative to control; format: functional; settings: HOP-92, 48 h, read-out: Activity
LOX IMVI [24] = experiment: Cytotoxicity against human LOXIMVI cells assessed as cell growth at 10 uM after 48 hrs by sulforhodamine B assay relative to control; format: functional; settings: read-out: Activity
SK-MEL-2 [25] = experiment: Cytotoxicity against human SK-MEL-2 cells assessed as cell growth at 10 uM after 48 hrs by sulforhodamine B assay relative to control; format: functional; settings: SK-MEL-2, 48 h, read-out: Activity
CAKI-1 [26] = experiment: Cytotoxicity against human Caki1 cells assessed as cell growth at 10 uM after 48 hrs by sulforhodamine B assay relative to control; format: functional; settings: CAKI-1, 48 h, read-out: Activity
HOP-92 [27] = experiment: Cytotoxicity against human HOP92 cells assessed as cell growth at 100 uM after 48 hrs by sulforhodamine B assay relative to control; format: functional; settings: HOP-92, 48 h, read-out: Activity
LOX IMVI [28] = experiment: Cytotoxicity against human LOXIMVI cells assessed as cell growth at 100 uM after 48 hrs by sulforhodamine B assay relative to control; format: functional; settings: read-out: Activity
SK-MEL-2 [29] = experiment: Cytotoxicity against human SK-MEL-2 cells assessed as cell growth at 100 uM after 48 hrs by sulforhodamine B assay relative to control; format: functional; settings: SK-MEL-2, 48 h, read-out: Activity
CAKI-1 [30] = experiment: Cytotoxicity against human Caki1 cells assessed as cell growth at 100 uM after 48 hrs by sulforhodamine B assay relative to control; format: functional; settings: CAKI-1, 48 h, read-out: Activity
SF-295 [31] = experiment: Cytotoxicity against human SF295 cells assessed as growth inhibition after 48 hrs by sulforhodamine B assay; format: functional; settings: SF-295, 48 h
SNB-75 [32] = experiment: Cytotoxicity against human SNB75 cells assessed as growth inhibition after 48 hrs by sulforhodamine B assay; format: functional; settings: SNB-75, 48 h
SNB-75 [33] = experiment: Cytotoxicity against human SNB75 cells assessed as cell growth at 0.01 uM after 48 hrs by sulforhodamine B assay relative to control; format: functional; settings: SNB-75, 48 h, read-out: Activity
SF-295 [34] = experiment: Cytotoxicity against human SF295 cells assessed as cell growth at 0.01 uM after 48 hrs by sulforhodamine B assay relative to control; format: functional; settings: SF-295, 48 h, read-out: Activity
SF-295 [35] = experiment: Cytotoxicity against human SF295 cells assessed as cell growth at 0.1 uM after 48 hrs by sulforhodamine B assay relative to control; format: functional; settings: SF-295, 48 h, read-out: Activity
SNB-75 [36] = experiment: Cytotoxicity against human SNB75 cells assessed as cell growth at 0.1 uM after 48 hrs by sulforhodamine B assay relative to control; format: functional; settings: SNB-75, 48 h, read-out: Activity
SF-295 [37] = experiment: Cytotoxicity against human SF295 cells assessed as cell growth at 1 uM after 48 hrs by sulforhodamine B assay relative to control; format: functional; settings: SF-295, 48 h, read-out: Activity
SNB-75 [38] = experiment: Cytotoxicity against human SNB75 cells assessed as cell growth at 1 uM after 48 hrs by sulforhodamine B assay relative to control; format: functional; settings: SNB-75, 48 h, read-out: Activity
SF-295 [39] = experiment: Cytotoxicity against human SF295 cells assessed as cell growth at 10 uM after 48 hrs by sulforhodamine B assay relative to control; format: functional; settings: SF-295, 48 h, read-out: Activity
SNB-75 [40] = experiment: Cytotoxicity against human SNB75 cells assessed as cell growth at 10 uM after 48 hrs by sulforhodamine B assay relative to control; format: functional; settings: SNB-75, 48 h, read-out: Activity
SF-295 [41] = experiment: Cytotoxicity against human SF295 cells assessed as cell growth at 100 uM after 48 hrs by sulforhodamine B assay relative to control; format: functional; settings: SF-295, 48 h, read-out: Activity
SNB-75 [42] = experiment: Cytotoxicity against human SNB75 cells assessed as cell growth at 100 uM after 48 hrs by sulforhodamine B assay relative to control; format: functional; settings: SNB-75, 48 h, read-out: Activity

SMILES	TGI (HOP-92 [1])	CC50 (HOP-92 [1])	LC50 (CAKI-1 [2])	TGI (CAKI-1 [2])	growth at 0.01 µM (CAKI-1 [11])	growth at 0.01 µM (SK-MEL-2 [12])	growth at 0.01 µM (LOX IMVI [13])	growth at 0.01 µM (HOP-92 [14])	growth at 0.1 µM (HOP-92 [15])	growth at 0.1 µM (LOX IMVI [16])	growth at 0.1 µM (SK-MEL-2 [17])	growth at 1 µM (HOP-92 [19])	growth at 1 µM (LOX IMVI [20])	growth at 1 µM (SK-MEL-2 [21])	growth at 10 µM (HOP-92 [23])	growth at 10 µM (LOX IMVI [24])	growth at 10 µM (SK-MEL-2 [25])	growth at 100 µM (HOP-92 [27])	growth at 100 µM (LOX IMVI [28])	growth at 100 µM (SK-MEL-2 [29])	also measured
COc1cc(C(=O)/C=C/c2cc(-c3cc(OC)c(OC)c(OC)c3)n[nH]2)cc(OC)c1OC	1.02 µM	5.54 µM	35.5 µM	10.9 µM	91%	104%	102%	86%	68%	101%	111%	1%	82%	97%	-67%	-95%	-63%	-95%	-95%	-96%	Flu intensity (MCF7 [3]): 637; Activity (MCF7 [4]): 33%; Activity (MCF7 [5]): 4.96%; phospho-Akt downregulation (active/inactive) (MCF7 [6]): Active; Activity (MCF7 [7]): Active; Activity (MCF7 [8]): Active; Activity (MCF7 [9]): Active; Activity (MCF7 [10]): Active; growth at 0.1 µM (CAKI-1 [18]): 89%; growth at 1 µM (CAKI-1 [22]): 82%; growth at 10 µM (CAKI-1 [26]): 4%; growth at 100 µM (CAKI-1 [30]): -94%
COc1ccc(C(=O)/C=C/c2cc(-c3ccc4c(c3)OCO4)n[nH]2)cc1OC	8.11 µM	62.2 µM	9.84 µM	4.33 µM	93%	98%	100%	85%	87%	99%	95%	79%	97%	107%	-8%	-62%	39%	-61%	-78%	-68%	LC50 (SF-295 [31]): 22.2 µM; TGI (SF-295 [31]): 6.15 µM; LC50 (concentration killing 50% of cells) (SNB-75 [32]): 27.7 µM; TGI (SNB-75 [32]): 7.57 µM; growth at 0.01 µM (SNB-75 [33]): 78%; growth at 0.01 µM (SF-295 [34]): 95%; growth at 0.1 µM (SF-295 [35]): 98%; growth at 0.1 µM (SNB-75 [36]): 76%; growth at 0.1 µM (CAKI-1 [18]): 100%; growth at 1 µM (SF-295 [37]): 101%; growth at 1 µM (SNB-75 [38]): 76%; growth at 1 µM (CAKI-1 [22]): 89%; growth at 10 µM (SF-295 [39]): -27%; growth at 10 µM (SNB-75 [40]): -10%; growth at 10 µM (CAKI-1 [26]): -51%; growth at 100 µM (SF-295 [41]): -93%; growth at 100 µM (SNB-75 [42]): -100%; growth at 100 µM (CAKI-1 [30]): -65%
COc1ccc(C(=O)/C=C/c2cc(-c3ccc(OC)c(OC)c3)n[nH]2)cc1OC	8.12 µM	> 100 µM				110%	100%	83%	81%	99%	113%	74%	68%	111%	-7%	-89%	-44%	-15%	-91%	-58%	GI50 (HOP-92 [1]): 1.97 µM; GI50 (SF-295 [31]): 1.6 µM; TGI (SF-295 [31]): 5.05 µM; GI50 (SNB-75 [32]): 1.16 µM; TGI (SNB-75 [32]): 2.96 µM; growth at 0.01 µM (SNB-75 [33]): 82%; growth at 0.01 µM (SF-295 [34]): 85%; growth at 0.1 µM (SF-295 [35]): 90%; growth at 0.1 µM (SNB-75 [36]): 89%; growth at 1 µM (SF-295 [37]): 70%; growth at 1 µM (SNB-75 [38]): 58%; growth at 10 µM (SF-295 [39]): -30%; growth at 10 µM (SNB-75 [40]): -65%; growth at 100 µM (SF-295 [41]): -57%; growth at 100 µM (SNB-75 [42]): -82%
